Here are results for one molecule from US9943506B2, “BCL6 inhibitors as anticancer agents” (Cornell University, priority 2013, dated 2018).

In data set [1] the test system is BCL6 dependent aggressive ABC DLBCLs. Nature of the data set: ABC DLBCL in vitro and in vivo treatment. The text has this: (§1) BCL6 is also required for normal development of germinal center (GC) B-cells.
Data set [2] deals with Toledo DLBCL cells. Put plainly: Growth inhibition of DLBCL cells, Toledo. Format: cell-based. The following applies: Homo sapiens, Table 2, BCL-6 independent, 48 hours. Summed up:
(§2)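 Percent viable cells relative to DMSO alone, assessed with Cell Titer Blue after 48-hour compound treatment of 50,000 cells per well, defined growth inhibition; dose-response curves yielded GI50.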

The test system of data set [3] is Ly3 DLBCL cells. Put plainly: Growth inhibition of DLBCL cells, Ly3. Type of data set: cell-based. The following applies: Table 2; BCL-6 dependent; 48 hours. Summed up: (§3)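 GI50 values come from dose-response curves of growth inhibition, defined as the percentage of viable cells compared with DMSO-treated controls. Cells (50,000 per well) are incubated with varying compound concentrations for 48 hours before viability measurement with Cell Titer Blue.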

The nature of data set [4]: Pharmacokinetics in vitro and in vivo.
For data set [5], the system named is Ly10 DLBCL cells. Nature of the data set: Growth inhibition of DLBCL cells, Ly10. Format: cell-based. Conditions: Table 2, BCL-6 dependent, 48 hours. Summed up: as §3
Data set [6] concerns Karpas 422 DLBCL cells. Nature of the data set: Growth inhibition of DLBCL cells, Karpas 422. Format: cell-based. The following applies: Homo sapiens, Table 2, BCL-6 independent, 48 hours, read-out: GI50 Karpas 422. In outline: as §2
For data set [7], the system named is BCL6 dependent GCB DLBCLs. Nature of the data set: GCB DLBCL tumors in vivo.
Excerpt: as §1

Data set [8] relates to Ly7 DLBCL cells. Put plainly: Growth inhibition of DLBCL cells, Ly7. Format: cell-based. The following applies: Table 2; BCL-6 dependent; 48 hours. Summed up:
as §3

Data set [9] concerns germinal center. Nature of the data set: Germinal center formation in immunized mice. Conditions: 10 days, 100 mg/kg.
Data set [10] is described as follows: Stability in administration vehicle by NMR spectroscopy. Format: physicochemical. The procedure: First, the stability of the compound in the administration vehicle of 30% PEG-300, 5% Tween-80, and 65% dextrose 5%, was evaluated at room temperature over a period of up to 8 days by NMR spectroscopy.
The toxic effects of 1085 on mice were then examined. Five C57BL/6 mice were exposed to daily intraperitoneal (IP) administration of increasing doses of the compound ranging from 50 to 150 mg/kg over the course of 7 days, to a cumulative dose of 750 mg/kg, and another five mice were exposed to vehicle only. […] Brain, heart, lung, liver, kidney, bowel, spleen, and bone marrow tissues were examined. Complete peripheral blood counts, biochemistry and liver function tests were normal.

Data set [11] relates to Ly1B50 DLBCL cells. Nature of the data set: Growth inhibition of DLBCL cells, Ly1B50. Format: cell-based. The following applies: Table 2; BCL-6 independent; 48 hours. In outline:
as §3

For data set [12], the system named is mice. Put plainly: Toxicity of 1085 in mice. Type of data set: in vivo. The following applies: C57BL/6 mice, daily IP 50 to 150 mg/kg over 7 days. The method, then: […]. BCL6 is also required for normal development of germinal center (GC) B-cells. […]. Noteworthy, BCL6 dependent aggressive ABC DLBCLs were also sensitive to the in vitro and in vivo treatment with 1085, and even primary human ABC DLBCL samples were sensitive to the treatment with the new BCL6 inhibitor.
[…]. Five C57BL/6 mice were exposed to daily intraperitoneal (IP) administration of increasing doses of the compound ranging from 50 to 150 mg/kg over the course of 7 days, to a cumulative dose of 750 mg/kg, and another five mice were exposed to vehicle only. […] Brain, heart, lung, liver, kidney, bowel, spleen, and bone marrow tissues were examined. Complete peripheral blood counts, biochemistry and liver function tests were normal.

For data set [13], the system named is primary human ABC DLBCL samples. Put plainly: Primary human ABC DLBCL samples.
Data set [14] concerns SUDHL6 DLBCL cells. Put plainly: Growth inhibition of DLBCL cells, SUDHL6. The following applies: Homo sapiens, SU-DHL-6; Table 2; BCL-6 dependent; 48 hours; read-out: GI50 SUDH6. Type of data set: cell-based. In outline:
as §2

`O=C(O)CCN1C(=O)/C(=C2/C(=O)Nc3ccc(Cl)cc32)SC1=S` [Compound 1085, (Z)-3-(5-(5-Chloro-2-oxoindolin-3-ylidene)-4-oxo-2-thioxothiazolidin-3-yl)propanoic acid]: the “sensitivity of ABC DLBCLs to treatment” value in [1] is listed as “sensitive”. In addition, the concentration for 50% growth inhibition (GI50) (commonly the concentration giving 50% growth inhibition) is over 40 µM in data set [2]; over 40 µM in data set [3]; 23.5 ± 0.2 µM in [5]; over 40 µM in [6]; 23 ± 9 µM in [8]; over 40 µM in data set [11]. In data set [14], the GI50 turned out to be 14 ± 7 µM. For the same molecule, the pharmacokinetics result in data set [4] was “favorable pharmacokinetics”. Besides, in [7], the “tumors with tumor regression” value turned out to be 95%. Also, the “effect on germinal center” value in [9] is listed as “inhibited the germinal center”. Further, in data set [10], the stability in solution entry is reported as “very stable in solution”. The “stability of the compound in the administration vehicle” value in data set [10] (30% PEG-300, 5% Tween-80, 65% dextrose 5%, room temperature, 8 days, NMR) is recorded as “No significant changes in the structure”. In [12], the “complete peripheral blood counts, biochemistry and liver function tests” value is on record as “normal”. Besides, the “toxic effects or other indicators of sickness” value in data set [12] (cumulative 750 mg/kg) is listed as “No toxic effects”. Also, the “sensitivity of primary human ABC DLBCL samples” value in data set [13] is reported as “sensitive”.
